Measured values: patent US20240190831A1, “TRANSTHYRETIN STABILIZING COMPOUNDS” (Protego Biopharma, Inc., priority 2021, published 2024)

Experiments:
[1] = In vitro rat liver S9 stability assay (formation of tafamidis); format: in vitro ADME; conditions: rat liver S9, 1 μM test compound, 37° C.
Method in brief: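 Test compound at 1 μM was incubated with rat liver S9 at 37° C. Samples taken at 0, 5, 10, 20, 30 and 60 min were protein-precipitated and analysed by LC-MS/MS. Percentage formation of the active agent was calculated at each time point.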

[2] = In vivo rat PK (CSF/plasma and brain/plasma ratio of tafamidis); conditions: for Tafamidis CSF/plasma Ratio over 24 hrs (po): oral dosing of test compound
From the text: For a compound provided herein to be an effective TTR stabilizer drug to halt and/or prevent the ocular and cerebral TTR amyloid deposition TTR amyloidosis, it has to be able to penetrate into the brain and CSF (surrogate for eye penetration) and deliver a sufficient amount of TTR stabilizer to stop TTR dissociation. A pharmacokinetic study in rat was used to evaluate the compounds. Male Sprague-Dawley (SD) rats (200-220 g weight) were acclimated for at least 2 to 3 days before being placed on study. All animals had access to certified rodent diet and water at libitum. Appropriate amount of the test compound was accurately weighed and mixed with appropriate volume of vehicle (such as DMSO/sterile water for iv dosing or 0.5% methylcellulose homogenous suspension or solution for oral administration or as a solution in a mixture NMP/PEG400/solutol/water) to administer a dose of 2, 5 or 10 mg/kg. For IV dosing the test compound was administered via tail vein or indwelling cannula. For oral dosing, the test compound was administered by oral gavage. Blood and CSF samples were collected at selected timepoints. Blood collection was performed from saphenous vein or tail vein of each animal into polypropylene tubes at each timepoint. All blood samples were transferred into EDTA-K2 tubes and centrifuged for 15 minutes at 4° C. for plasma collection. Plasma samples were kept at −80° C. until LC/MSMS analysis. CSF was collected from cisterna magna at each timepoint and quick frozen over dry ice and kept at −80° C. until LC/MSMS analysis. Brains were harvested immediately after the terminal bleeding (˜24 hrs post dosing). The blood of the brain was perfused with normal saline. The brain was quickly picked and placed into centrifuge tube. The weight of brain samples was recorded. 4-Fold homogenization solution (MeOH/15 mM PBS (1:2)) was added into the tube according to the weighed samples. The brain was homogenized using a Polytron (3 strokes or more until homogenous, each 30 seconds) on wet ice. The samples were quick frozen over dry ice and kept at −80° C. until LC/MSMS analysis. Using a LC-MSMS method for the quantitative determination of test compound in biological matrixes, amount of test compound and active agent were measured in plasma and CSF at selected timepoints post-dosing and in brain at 24 hrs post dosing. Plasma concentration versus time data was analyzed by non-compartmental approaches using the Phoenix WinNonlin 6.3 software program. As reference, an oral dose of 2 mg/kg of tafamidis gave a CSF to plasma ratio over 24 hrs around 0.01 and a brain to plasma ratio at 24 hrs around 0.02.
Results from rat PK (CSF/plasma ratio and brain/plasma ratio at 24 hrs) are shown in Table 4B and Table 4C, respectively.

[3] = tafamidis-treated FAP patients; cited from earlier work

SMILES | Formation of tafamidis at 60 min [1] | Tafamidis CSF/plasma Ratio over 24 hrs (po) [2] | tafamidis level in CSF, of that in plasma [3] | tafamidis level in vitreous, of that in plasma [3] | tafamidis/TTR stoichiometric ratio in plasma [3] | tafamidis/TTR stoichiometric ratio in vitreous and CSF [3] | Kp ([2]; male, Sprague-Dawley, CSF and plasma, oral dose of 2 mg/kg of tafamidis, reference, read-out: CSF to plasma ratio over 24 hrs) | Kp at 24 h ([2]; male, Sprague-Dawley, brain and plasma, oral dose of 2 mg/kg of tafamidis, reference)
CC1(O)CN(C(=O)c2ccc3nc(-c4cc(Cl)cc(Cl)c4)oc3c2)C1 [Compound 101] | A (A is <25%) | B (B is ≥0.015 to <0.02) | – | – | – | – | – | –
O=C(c1ccc2nc(-c3cc(Cl)cc(Cl)c3)oc2c1)N1CCC(F)(F)C1 [Compound 104] | A (A is <25%) | A (A is <0.015) | – | – | – | – | – | –
O=C(O)c1ccc2nc(-c3cc(Cl)cc(Cl)c3)oc2c1 [tafamidis] | – | – | 2% | 0.5% | 2.4 | ≤ 1 | ~0.01 | ~0.02
